Publication PMC10758951, “mRNA display reveals a class of high-affinity bromodomain-binding motifs that are not found in the human proteome” (The Journal of Biological Chemistry, 2023)
pKd: −log10 of the molar value.

Legend:
[1] = Peptide solubility (as observed on sample preparation); type: physicochemical; details: dissolved in water or experimental buffer; qualitative statement
Protocol: The concentrations of the peptides used in this study were determined by measuring absorbance at 205 nm ([21]) and NMR ([22]) quantification using a known concentration of 4,4-dimethyl-4-silapentane-1-sulfonic acid as a reference. Peptides were first dissolved in either water or experimental buffer, and measurements were made on the soluble peptide remaining in solution following removal insoluble peptide via centrifugation.

[2] = target: BRD3–BD1, BRD4–BD1, and BRD2–BD1; test: SPR, stated jointly for the BD1 domains; type: binding, human; details: range over BRD3–BD1, BRD4–BD1 and BRD2–BD1; BD immobilized, peptide flowed; equilibrium steady state affinity analysis; read-out: Affinities (KD) for the three BD1 domains, SPR
Source text: (§1) The BDs from human BRD2 (BD1: 65–194; BD2: 347–455), BRD3 (BD1: 25–147; BD2: 307–419), and BRD4 (BD1: 42–168; BD2: 348–464) were expressed in Escherichia coli from pQE80L-Navi (Qiagen) as N-terminally His-tagged and biotinylated proteins for SPR. For other experiments, they were expressed from pGEX-6P (Cytiva) as N-terminal glutathione-S-transferase-fusion proteins. Expression and purification, via affinity chromatography and size-exclusion chromatography, of unlabeled and uniformly ^15N-labeled proteins were carried out as described previously ([11]).
Measurements were conducted on a T200 (Cytiva) and data analyzed using the Biacore Insight Evaluation Software. Experiments were performed at 4 °C in multicycle kinetics mode and fit using the equilibrium steady state affinity model (1:1 Langmuir binding isotherm). For experiments measuring the binding of the 2AcK peptide, biotinylated BET BDs were immobilized on a biotin CAP chip (Cytiva) with a target density of ∼1000 to 2000 RU and peptide was flowed over the chip. A buffer comprising 20 mM Mes (pH 6.5), 150 mM NaCl, 0.05% (v/v) Tween-20 was used as the running buffer. […]

BRD3–BD1 = target: T1, BRD3–BD1 (Homo sapiens, UniProt Q15059); test: Isothermal titration calorimetry (ITC); details: ITC 25 °C, BRD3–BD1 titrated into peptide; fit to binding isotherm
T1 construct: BRD3 (BD1: 25–147; BD2: 307–419); His tag (N); biotinylation (Avi-type acceptor, vector pQE80L-Navi) (N); made in house; host or cells: Escherichia coli
T1 sequence (Q15059 25-147): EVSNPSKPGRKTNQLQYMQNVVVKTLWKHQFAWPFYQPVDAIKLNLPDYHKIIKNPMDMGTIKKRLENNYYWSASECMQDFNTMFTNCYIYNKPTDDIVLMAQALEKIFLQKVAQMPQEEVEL
Source text: as §1
The affinities and stoichiometry for the interaction of BRD3–BD1 with 2AcK and 2AcK.4E peptides were determined using a MicroCal PEAQ ITC (Malvern Instruments). Titrations of BRD3–BD1 (1 mM) into peptide (25–50 μM) were carried out at 25 °C using a 0.2 μl initial injection and 20 to 24 subsequence 1 to 3 μl injections. Data were analyzed using Malvern MicroCal PEAQ ITC Software, using a protein into buffer baseline correction and fitted with a one-site binding model.

BRD2–BD2 = target: T2, BRD2–BD2 (Homo sapiens, UniProt P25440); test: SPR binding of peptides to BET bromodomains; details: peptide flowed
T2 construct: human BRD2 (BD1: 65–194; BD2: 347–455); His tag (N); biotinylation (Avi-type acceptor, vector pQE80L-Navi) (N); made in house; host or cells: Escherichia coli
T2 sequence (P25440 347-455): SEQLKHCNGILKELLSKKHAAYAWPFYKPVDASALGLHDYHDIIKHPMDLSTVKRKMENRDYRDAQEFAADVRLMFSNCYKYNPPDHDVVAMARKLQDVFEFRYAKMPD
Source text: as §1
(§2) Measurements were conducted on a T200 (Cytiva) and data analyzed using the Biacore Insight Evaluation Software. Experiments were performed at 4 °C in multicycle kinetics mode and fit using the equilibrium steady state affinity model (1:1 Langmuir binding isotherm). For experiments measuring the binding of the 2AcK peptide, biotinylated BET BDs were immobilized on a biotin CAP chip (Cytiva) with a target density of ∼1000 to 2000 RU and peptide was flowed over the chip. A buffer comprising 20 mM Mes (pH 6.5), 150 mM NaCl, 0.05% (v/v) Tween-20 was used as the running buffer. For experiments measuring the binding of 1AcK.4E and 2AcK.4E, C-terminally biotinylated variants of the peptides were immobilized on a CM5 chip (Cytiva), which had been amine-coupled with streptavidin, to a target density of ∼50 to 100 RU and unlabeled BET BDs were flowed over the chip. A buffer comprising 20 mM Hepes (pH 7.5), 150 mM NaCl, and 0.05% (v/v) Tween-20 was used as the running buffer.

BRD3–BD2 = target: T3, BRD3–BD2 (Homo sapiens, UniProt Q15059); test: SPR binding of peptides to BET bromodomains; details: peptide flowed
T3 construct: BRD3 (BD1: 25–147; BD2: 307–419); His tag (N); biotinylation (Avi-type acceptor, vector pQE80L-Navi) (N); made in house; host or cells: Escherichia coli
T3 sequence (Q15059 307-419): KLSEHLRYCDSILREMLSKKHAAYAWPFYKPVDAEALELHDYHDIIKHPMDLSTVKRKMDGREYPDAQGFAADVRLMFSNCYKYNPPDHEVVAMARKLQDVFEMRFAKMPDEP
Source text: as §1, §2

BRD4–BD2 = target: T4, BRD4–BD2 (Homo sapiens, UniProt O60885); test: SPR binding of peptides to BET bromodomains; details: SPR 4 °C; biotinylated BD immobilized on biotin CAP chip, peptide flowed; 20 mM Mes pH 6.5, 150 mM NaCl, 0.05% Tween-20; steady state 1:1 fit; geometric mean of minimum three measurements
T4 construct: BRD4 (BD1: 42–168; BD2: 348–464); His tag (N); biotinylation (Avi-type acceptor, vector pQE80L-Navi) (N); made in house; host or cells: Escherichia coli
Source text: as §1, §2

[3] = Fig. 2A, one titration, fit to 1:1 binding model, BD immobilized, Mes pH 6.5, 4 °C
[4] = SPR 4 °C, biotinylated BD immobilized on biotin CAP chip, 20 mM Mes pH 6.5, 150 mM NaCl, 0.05% Tween-20, steady state 1:1 fit, geometric mean of minimum three measurements

Substance	Solubility of the peptide (in words) [1]	pKd [2]	N value (stoichiometry) from ITC fit (BRD3–BD1)	KD on plot, typical SPR titration, BRD2-BD2 (BRD2–BD2; [3])	KD (SPR) BRD2–BD2 (BRD2–BD2; [4])	KD on plot, typical SPR titration, BRD3-BD2 (BRD3–BD2; [3])	KD (SPR) BRD3–BD2 (BRD3–BD2; [4])	KD (SPR) BRD4–BD2 (BRD4–BD2)
ALLLAKLYHF [1AcK]	not soluble at concentrations high enough to allow measurements to be made	–	–	–	–	–	–	–
Ac-AQRSLK(Ac)LLK(Ac)HLYH-NH2 (C-terminus assumed) [2AcK]	slightly more soluble	5.70 to 6.00	~2.5	No binding	no measurable binding	No binding	no measurable binding	a small degree of binding observed
